A short description of the series: recombinant UMI read abundance after kanamycin selection (control-corrected) (log10(CPM+1)); higher = more efficient recombination; extreme values may be limits of the assay; sequences stand for … in AGTGCAGAGAAAATCGGCCAGTTTTCTCTGCCTGCAGTCCGCATGCCGTGGGACCCCTTGGGTTCTAACCTGTTGCCTAGATTTATGCAGCGGACTGCCTTTCTCCCAAAGTGATAAACCGG…AGGTTGGTTTCACT; site = the 11-nt donor. The gist of the method:
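Counts of recombinant UMIs were reported as log10(CPM+1). Before that, they were converted to CPM, averaged over replicates and scaled using control-derived factors. They came from PCR across the donor–target junction after Escherichia coli carrying the pair library and target plasmid was plated on IPTG (0.07 mM) plus kanamycin, or unselected, in two replicates each.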
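Note: IS621 bridge recombinase in Escherichia coli cells against a fixed T5 target plasmid.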

On to “AGCCAGACATGGACCGGTTTTCCCGGTAATCCGTATTTGCA (site AGCCAGACTTG)”, for which the “recombinant UMI read abundance (log10)” value was found to be 2.18.

Consider “AGCCAGACATGGACCGGTTTTCCCGGTAATCCGTATTTGCA (site AGGAAGACTTG)”, for which the “recombinant UMI read abundance (log10)” value is 0.

As for “AGCCCAGCATGGACCGGTTTTCCCGGTAATCCGTATTTGTT (site AGCCAAGCTAA)”, the “recombinant UMI read abundance (log10)” value is 0.0134.

As for “AGCCCAGCATGGACCGGTTTTCCCGGTAATCCGTATTTGTT (site AGCCCAGCTAA)”, the “recombinant UMI read abundance (log10)” value was 0.602.

With “AGCCCAGCATGGACCGGTTTTCCCGGTAATCCGTATTTGTT (site AGCCGAGCTAA)”, the “recombinant UMI read abundance (log10)” value amounted to 0.0227.

For the sequence “AGCCCAGCATGGACCGGTTTTCCCGGTAATCCGTATTTGTT (site AGCCTAGCTAA)”, the “recombinant UMI read abundance (log10)” value turned out to be 0.0205.

“AGCCCCGCATGGACCGGTTTTCCCGGTAATCCGTATTTGTT (site AGCCCCGCTAA)”: the “recombinant UMI read abundance (log10)” value was 1.12.

Take “AGCCCGCCATGGACCGGTTTTCCCGGTAATCCGTATTTGGG (site AGCCCGCCTCC)”: the “recombinant UMI read abundance (log10)” value turned out to be 0.00589.

“AGCCGGCCATGGACCGGTTTTCCCGGTAATCCGTATTTGAT (site AGCCGGCCTAT)”: the “recombinant UMI read abundance (log10)” value stood at 0.00427.

As for “AGCCGTACATGGACCGGTTTTCCCGGTAATCCGTATTTGCT (site AGCCGTACTAG)”, the “recombinant UMI read abundance (log10)” value was 1.74.

On to “AGCCGTACATGGACCGGTTTTCCCGGTAATCCGTATTTGCT (site CGCCGTACTAG)”, for which the “recombinant UMI read abundance (log10)” value stood at 0.697.

“AGCCGTACATGGACCGGTTTTCCCGGTAATCCGTATTTGCT (site GGCCGTACTAG)”: the “recombinant UMI read abundance (log10)” value was 0.

On to “AGCCGTACATGGACCGGTTTTCCCGGTAATCCGTATTTGCT (site TGCCGTACTAG)”, for which the “recombinant UMI read abundance (log10)” value came out at 1.18.

For “AGCCTAACATGGACCGGTTTTCCCGGTAATCCGTATTTGGG (site AGCCTAACTCC)”, the “recombinant UMI read abundance (log10)” value came to 0.0227.

As to “AGCCTAACATGGACCGGTTTTCCCGGTAATCCGTATTTGTT (site AGCCTAACTAA)”, the “recombinant UMI read abundance (log10)” value came out at 0.00538.

“AGCCTAACATGGACCGGTTTTCCCGGTAATCCGTATTTGTT (site AGCCTACCTAA)”: the “recombinant UMI read abundance (log10)” value came out at 0.024.

In the case of “AGCCTAACATGGACCGGTTTTCCCGGTAATCCGTATTTGTT (site AGCCTAGCTAA)”, the “recombinant UMI read abundance (log10)” value was determined as 0.0126.

Take “AGCCTAACATGGACCGGTTTTCCCGGTAATCCGTATTTGTT (site AGCCTATCTAA)”: the “recombinant UMI read abundance (log10)” value was 0.00871.

For the sequence “AGCCTAGCATGGACCGGTTTTCCCGGTAATCCGTATTTGTT (site AACCTAGCTAA)”, the “recombinant UMI read abundance (log10)” value was determined as 0.00661.

On to “AGCCTAGCATGGACCGGTTTTCCCGGTAATCCGTATTTGTT (site ACCCTAGCTAA)”, for which the “recombinant UMI read abundance (log10)” value came out at 0.0311.

On to “AGCCTAGCATGGACCGGTTTTCCCGGTAATCCGTATTTGTT (site AGACTAGCTAA)”, for which the “recombinant UMI read abundance (log10)” value was 0.00397.

As to “AGCCTAGCATGGACCGGTTTTCCCGGTAATCCGTATTTGTT (site AGCATAGCTAA)”, the “recombinant UMI read abundance (log10)” value was 0.00842.

As for “AGCCTAGCATGGACCGGTTTTCCCGGTAATCCGTATTTGTT (site AGCCAAGCTAA)”, the “recombinant UMI read abundance (log10)” value worked out at 0.0196.

Consider “AGCCTAGCATGGACCGGTTTTCCCGGTAATCCGTATTTGTT (site AGCCCAGCTAA)”, for which the “recombinant UMI read abundance (log10)” value is 0.00418.

“AGCCTAGCATGGACCGGTTTTCCCGGTAATCCGTATTTGTT (site AGCCGAGCTAA)”: the “recombinant UMI read abundance (log10)” value turned out to be 0.0175.

On to “AGCCTAGCATGGACCGGTTTTCCCGGTAATCCGTATTTGTT (site AGCCTAACTAA)”, for which the “recombinant UMI read abundance (log10)” value was determined as 0.0384.

With “AGCCTAGCATGGACCGGTTTTCCCGGTAATCCGTATTTGTT (site AGCCTACCTAA)”, the “recombinant UMI read abundance (log10)” value came to 0.0078.

For the sequence “AGCCTAGCATGGACCGGTTTTCCCGGTAATCCGTATTTGTT (site AGCCTAGCTAA)”, the “recombinant UMI read abundance (log10)” value was found to be 0.0154.

As to “AGCCTAGCATGGACCGGTTTTCCCGGTAATCCGTATTTGTT (site AGCCTAGCTAC)”, the “recombinant UMI read abundance (log10)” value was found to be 0.

The record behind these values is the supplement of paper PMC11208160.
